Results reported in patent publication US20260166039A1 (SCHRÖDINGER, INC., priority 2022, published 2026).
Like-named read-outs stand apart in the source and are kept apart here.

Columns and labels:
Wee1 kinase domain = target: T1, Wee1 kinase domain (Homo sapiens, UniProt P30291); test: Wee1 Kinase Biochemical Assay (ADP-Glo); details: 15 uM ATP
T1 construct: Wee1 kinase domain was purchased from Carna (catalog #05-177); purchased Carna 05-177
Summary of the method: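 Kinase domain (1 nM) incubated 4 h at 25 °C with 15 uM ATP and 2 ng/mL Poly(Lys,Tyr 4:1) in 40 mM Tris-HCl, 20 mM MgCl2, 0.1 mg/mL BSA, 2 mM DTT. ADP formation read by ADP-Glo luminescence; percent inhibition normalized to DMSO and saturating reference-inhibitor controls.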

[1] = tested on: phosphorylation of Cdc2 Y15 (Wee1 substrate) in A427 cells; test: Phosphorylated Cdc2 MSD Electrochemiluminescence Assay; assay type: cell-based
Summary of the method: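 A427 cells (RPMI 1640, 10% FBS) treated 20 h after plating with 3-fold serial compound dilutions, in duplicate, 37 °C, 5% CO2; total incubation 6 h. Lysate Cdc2 pY15 read by MSD electrochemiluminescence sandwich immunoassay; % remaining signal normalised to DMSO (high) and reference Wee1 inhibitor (low) controls.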

[2] = class symbols, 1 nM Wee1 enzyme, 4 hours at 25° C.
[3] = Homo sapiens, A-427, class symbols, read-out: A427 pCDC2 MSD IC50

T1 sequence (P30291 299-569 limits assumed): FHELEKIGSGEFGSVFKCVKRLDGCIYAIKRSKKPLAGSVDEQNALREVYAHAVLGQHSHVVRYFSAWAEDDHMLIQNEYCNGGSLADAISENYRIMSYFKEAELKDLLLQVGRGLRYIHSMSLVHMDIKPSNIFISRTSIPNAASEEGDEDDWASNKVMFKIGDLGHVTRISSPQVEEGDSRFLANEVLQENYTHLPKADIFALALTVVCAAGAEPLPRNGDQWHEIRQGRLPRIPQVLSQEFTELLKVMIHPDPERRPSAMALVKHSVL

| Structure (SMILES) | IC50 (Wee1 kinase domain; Wee1 kinase domain, ADP-Glo) | IC50 ([1]; Homo sapiens, A-427, pCDC2 MSD) | IC50 (Wee1 kinase domain; [2]) | IC50 [1, 3] | IC50 ([1]; pCDC2 MSD) |
| --- | --- | --- | --- | --- | --- |
| CNCc1cccc(N2c3nc(Nc4ccc([C@H]5CNC(=O)C5)cc4)ncc3[C@@]3(C)COC(C)(C)C[C@@H]23)n1 (single isomer, unassigned) [Example 61] | < 0.01 µM | < 0.1 µM | – | – | – |
| CN[C@@H](c1cccc(N2c3nc(Nc4ccc(N5CCN(C)CC5)cc4)ncc3[C@@]3(C)COC(C)(C)C[C@@H]23)n1)C(F)(F)F [Example 756, (4bR,8aR)-4b,7,7-trimethyl-N-(4-(4-methylpiperazin-1-yl)phenyl)-9-(6-((S)-2,2,2-trifluoro-1-(methylamino)ethyl)pyridin-2-yl)-4b,5,7,8,8a,9-hexahydropyrano[3′,4′:4,5]pyrrolo[2,3-d]pyrimidin-2-amine] | – | – | < 0.01 µM | 0.1 to 1 µM | – |
| C[C@H]1CCC(=O)N1c1cccc(N2c3nc(Nc4ccc(N5CC6(CN(C)C6)C5)cc4)ncc3[C@@]3(C)COC(C)(C)C[C@@H]23)n1 (single isomer, unassigned) [Example 725] | – | – | < 0.01 µM | 0.1 to 1 µM | – |
| CC1(C)C[C@H]2N(c3cccc(N4CCOC4=O)n3)c3nc(Nc4ccc([C@]5(C)CCNC5)cc4)ncc3[C@@]2(C)CO1 [Example 664, 3-(6-((4bR,8aR)-4b,7,7-trimethyl-2-((4-((S)-3-methylpyrrolidin-3-yl)phenyl)amino)-4b,7,8,8a-tetrahydropyrano[3′,4′:4,5]pyrrolo[2,3-d]pyrimidin-9(5H)-yl)pyridin-2-yl)oxazolidin-2-one] | – | – | < 0.01 µM | 0.1 to 1 µM | – |
| CN1C[C@@H]2C[C@H]1CN2c1ccc(Nc2ncc3c(n2)N(c2cccc(N4CCCC4=O)n2)[C@@H]2CC(C)(C)OC[C@]32C)cc1 [Example 629, 1-(6-((4bR,8aR)-4b,7,7-trimethyl-2-((4-((1S,4S)-5-methyl-2,5-diazabicyclo[2.2.1]heptan-2-yl)phenyl)amino)-4b,7,8,8a-tetrahydropyrano[3′,4′:4,5]pyrrolo[2,3-d]pyrimidin-9(5H)-yl)pyridin-2-yl)pyrrolidin-2-one] | – | – | < 0.01 µM | 0.1 to 1 µM | – |
| CNCc1cccc(N2c3nc(Nc4ccc(C5(C)COC5)cc4)ncc3[C@@]3(C)COC(C)(C)C[C@@H]23)n1 (single isomer, unassigned) [Example 84] | < 0.01 µM | 0.1 to 1 µM | – | – | – |
| Cc1cc(Nc2ncc3c(n2)N(c2cccc(C(C)(C)O)n2)[C@@H]2CC(C)(C)OC[C@]32C)ccc1N1C[C@H]2C[C@@H]1CN2C (single isomer, unassigned) [Example 425] | – | – | < 0.01 µM | 0.1 to 1 µM | – |
| CNCc1cccc(N2c3nc(Nc4ccc(N5CCOCC5)cc4)ncc3[C@@]3(C)COCC[C@@H]23)n1 (single isomer, unassigned) [Example 572] | – | – | < 0.01 µM | 0.1 to 1 µM | – |
| CC1(C)C[C@H]2N(c3cccc([C@H]4COCCN4)n3)c3nc(Nc4ccc(N5CCOCC5)cc4)ncc3[C@@]2(C)CO1 [Example 731, (4bR,8aR)-4b,7,7-trimethyl-9-(6-((S)-morpholin-3-yl)pyridin-2-yl)-N-(4-morpholinophenyl)-4b,5,7,8,8a,9-hexahydropyrano[3′,4′:4,5]pyrrolo[2,3-d]pyrimidin-2-amine] | – | – | < 0.01 µM | 0.1 to 1 µM | – |
| CC1(C)C[C@H]2N(c3cccc(N=S(C)(C)=O)n3)c3nc(NC(=O)[C@H]4C[C@@H]4c4ccccc4)ncc3[C@@]2(C)CO1 (single isomer, unassigned) [Example 397] | < 0.01 µM | – | – | – | 0.1 to 1 µM |
| CN1CC[C@H]2CN(c3ccc(Nc4ncc5c(n4)N(c4cccc(N6CCOC6=O)n4)[C@@H]4CC(C)(C)OC[C@]54C)cc3)C[C@H]21 [Example 684, 3-(6-((4bR,8aR)-4b,7,7-trimethyl-2-((4-((3aS,6aS)-1-methylhexahydropyrrolo[3,4-b]pyrrol-5(1H)-yl)phenyl)amino)-4b,7,8,8a-tetrahydropyrano[3′,4′:4,5]pyrrolo[2,3-d]pyrimidin-9(5H)-yl)pyridin-2-yl)oxazolidin-2-one] | – | – | < 0.01 µM | 0.1 to 1 µM | – |
| CC1(C)C[C@H]2N(c3cccc(N=S(C)(C)=O)n3)c3nc(Nc4ccc(C5CNC5)c(F)c4)ncc3[C@@]2(C)CO1 (single isomer, unassigned) [Example 183] | < 0.01 µM | 0.1 to 1 µM | – | – | – |
| CN1CC[C@@](C)(c2ccc(Nc3ncc4c(n3)N(c3cccc(N5CCOC5=O)n3)[C@@H]3CC(C)(C)OC[C@]43C)cc2)C1 [Example 670, 3-(6-((4bR,8aR)-2-((4-((S)-1,3-dimethylpyrrolidin-3-yl)phenyl)amino)-4b,7,7-trimethyl-4b,7,8,8a-tetrahydropyrano[3′,4′:4,5]pyrrolo[2,3-d]pyrimidin-9(5H)-yl)pyridin-2-yl)oxazolidin-2-one] | – | – | < 0.01 µM | 0.1 to 1 µM | – |
| CN[C@H](C)c1cccc(N2c3nc(Nc4ccc(N5CCOCC5)cc4)ncc3[C@@]3(C)COC(C)(C)C[C@@H]23)n1 (single isomer, unassigned) [Example 549] | – | – | < 0.01 µM | < 0.1 µM | – |
| CC1(C)C[C@H]2N(c3cccc(N=S(C)(C)=O)n3)c3nc(NC(=O)OC4CCOCC4)ncc3[C@@]2(C)CO1 (single isomer, unassigned) [Example 772] | – | – | < 0.01 µM | 0.1 to 1 µM | – |
| CN1CCN(c2ccc(Nc3ncc4c(n3)N(c3ccn(C)n3)[C@@H]3CC(C)(C)OC[C@]43C)cc2)CC1 (single isomer, unassigned) [Example 717] | – | – | < 0.01 µM | 0.1 to 1 µM | – |
| CC1(C)C[C@H]2N(c3cccc(N=S(C)(C)=O)n3)c3nc(Nc4ccn5ccnc5c4)ncc3[C@@]2(C)CO1 (single isomer, unassigned) [Example 379] | < 0.01 µM | 0.1 to 1 µM | – | – | – |
| C[C@H]1CCC(=O)N1c1cccc(N2c3nc(Nc4ccc(N5C[C@@H]6C[C@H]5CN6C)cc4)ncc3[C@@]3(C)COC(C)(C)C[C@@H]23)n1 [Example 651, (S)-5-methyl-1-(6-((4bR,8aR)-4b,7,7-trimethyl-2-((4-((1S,4S)-5-methyl-2,5-diazabicyclo[2.2.1]heptan-2-yl)phenyl)amino)-4b,7,8,8a-tetrahydropyrano[3′,4′:4,5]pyrrolo[2,3-d]pyrimidin-9(5H)-yl)pyridin-2-yl)pyrrolidin-2-one] | – | – | < 0.01 µM | 0.1 to 1 µM | – |
| C[C@H]1CCC(=O)N1c1cccc(N2c3nc(Nc4ccc(N5CCN(C)CC5)cc4)ncc3[C@@]3(C)COC(C)(C)C[C@@H]23)n1 (single isomer, unassigned) [Example 583] | – | – | < 0.01 µM | 0.1 to 1 µM | – |
| CN1CC(c2ccc(Nc3ncc4c(n3)N(c3cccc(N=S(C)(C)=O)n3)[C@@H]3CC(C)(C)OC[C@]43C)cc2F)C1 (single isomer, unassigned) [Example 184] | < 0.01 µM | < 0.1 µM | – | – | – |
| C[C@H]1COC(=O)N1c1cccc(N2c3nc(Nc4ccc([C@H]5CCN(C)C5)nc4)ncc3[C@]3(C)COC(C)(C)C[C@H]23)n1 (single isomer, unassigned) [Example 262] | 0.1 to 1 µM | 0.1 to 1 µM | – | – | – |
| CC1(C)C[C@H]2N(c3cccc(C(C)(C)O)n3)c3nc(Nc4ccc(O[C@H]5CCNC5)cc4)ncc3[C@@]2(C)CO1 (single isomer, unassigned) [Example 419] | – | – | < 0.01 µM | < 0.1 µM | – |
| CNC(=O)c1ccc(Nc2ncc3c(n2)N(c2cccc(N=S(C)(C)=O)n2)[C@@H]2CC(C)(C)OC[C@]32C)cc1 (single isomer, unassigned) [Example 117] | < 0.01 µM | < 0.1 µM | – | – | – |
| C[C@H]1CCC(=O)N1c1cccc(N2c3nc(Nc4ccc(N5C[C@H]6C[C@@H](C5)N6C)cc4)ncc3[C@@]3(C)COC(C)(C)C[C@@H]23)n1 (single isomer, unassigned) [Example 748] | – | – | < 0.01 µM | 0.1 to 1 µM | – |
| CN1CCN(c2ccc(Nc3ncc4c(n3)N(c3cccc(N5CCOC5=O)n3)[C@@H]3CC(C)(C)OC[C@]43C)cc2)CC1 (single isomer, unassigned) [Example 577] | – | – | < 0.01 µM | < 0.1 µM | – |
| CN1C[C@@H]2C[C@H]1CN2c1ccc(Nc2ncc3c(n2)N(c2cccc(N4CCOC4=O)n2)[C@@H]2CC(C)(C)OC[C@]32C)cc1F [Example 676, 3-(6-((4bR,8aR)-2-((3-fluoro-4-((1S,4S)-5-methyl-2,5-diazabicyclo[2.2.1]heptan-2-yl)phenyl)amino)-4b,7,7-trimethyl-4b,7,8,8a-tetrahydropyrano[3′,4′:4,5]pyrrolo[2,3-d]pyrimidin-9(5H)-yl)pyridin-2-yl)oxazolidin-2-one] | – | – | < 0.01 µM | 0.1 to 1 µM | – |
| Cc1cc(Nc2ncc3c(n2)N(c2cccc(N=S(C)(C)=O)n2)[C@@H]2CC(C)(C)OC[C@]32C)ccc1[C@H]1CCN(C)C1 (single isomer, unassigned) [Example 147] | < 0.01 µM | < 0.1 µM | – | – | – |
| C[C@H]1COC(=O)N1c1cccc(N2c3nc(Nc4ccc(OC5CNC5)nc4)ncc3[C@@]3(C)COC(C)(C)C[C@@H]23)n1 (single isomer, unassigned) [Example 343] | < 0.01 µM | 0.1 to 1 µM | – | – | – |
| CN[C@@H](C)c1cccc(N2c3nc(Nc4ccc(N5CCOCC5)cc4)ncc3[C@@]3(C)COC(C)(C)C[C@@H]23)n1 (single isomer, unassigned) [Example 537] | – | – | < 0.01 µM | 0.1 to 1 µM | – |
| Cc1cc(Nc2ncc3c(n2)N(c2cccc(N4CCCC4=O)n2)[C@@H]2CC(C)(C)OC[C@]32C)ccc1N1C[C@@H]2C[C@H]1CN2C [Example 652, 1-(6-((4bR,8aR)-4b,7,7-trimethyl-2-((3-methyl-4-((1S,4S)-5-methyl-2,5-diazabicyclo[2.2.1]heptan-2-yl)phenyl)amino)-4b,7,8,8a-tetrahydropyrano[3′,4′:4,5]pyrrolo[2,3-d]pyrimidin-9(5H)-yl)pyridin-2-yl)pyrrolidin-2-one] | – | – | < 0.01 µM | 0.1 to 1 µM | – |
